Data from PMC12548419 (Journal of Virology, 2025).
“And” between values parts separate entries of the source, which are not always exact repeats. Equal values may be shown once. Read-outs that look alike come from different tables or passages of the source.

Tests used:
in vivo [1] = settings: Sprague-Dawley, rat, po, 10 mg/kg
LCMV [2] = assay: microbe, parasite or virus in culture; assay type: cell-based, lymphocytic choriomeningitis virus (strain Armstrong); settings: for EC50: Mammarenavirus choriomeningitidis
in vivo [3] = settings: cynomolgus monkey, po, 5 mg/kg
SFTSV [4] = assay: microbe, parasite or virus in culture; assay type: cell-based; settings: for EC50: Severe fever with thrombocytopenia syndrome virus
SFTSV [5] = tested on: SFTSV; parameters: species or system A129 mice; settings: mouse, in vivo
LCMV [6] = tested on: LCMV; parameters: species or system C57BL/6-Prf1^tm1Sdz/J mice; settings: mouse, in vivo
[7] = cynomolgus monkey, in vivo, po, 10.7 mg/kg
[8] = Sprague-Dawley, rat, in vivo, po, 21 mg/kg
SFTSV [9] = assay type: cell-based, severe fever with thrombocytopenia syndrome virus
LCMV [10] = assay type: cell-based, lymphocytic choriomeningitis virus
[11] = A549, 48 h, read-out: EC50 (μM) mean ± sd LCMV A549
[12] = BHK-21, 48 h, read-out: EC50 (μM) mean ± sd LCMV BHK-21
[13] = Vero, 48 h, read-out: EC50 (μM) mean ± sd LCMV Vero
[14] = read-out: EC50 range for LCMV over all cell lines evaluated
[15] = A549, 48 h, read-out: EC50 (μM) mean ± sd SFTSV A549
[16] = Huh-7, 48 h, read-out: EC50 (μM) mean ± sd SFTSV Huh-7
[17] = Vero, 48 h, read-out: EC50 (μM) mean ± sd SFTSV Vero
[18] = read-out: EC50 range for SFTSV over all cell lines evaluated

O=c1ccn([C@@H]2O[C@](F)(CO)[C@@H](O)[C@H]2O)c(=O)[nH]1 [4′-FlU, 4′-Fluorouridine]
CC50 (in vitro): > 500 µM | AUC0-t (in vivo [1]): 7280 ng·h/mL | Cmax (in vivo [1]): 1370 ng/mL | half-life (in vivo [1]): 3.39 ± 1.41 h | SI values LCMV A549 (LCMV [2]): > 4826.57 | SI values LCMV BHK-21 (LCMV [2]): > 3389.68 | SI values LCMV Vero (LCMV [2]): > 12697.20 | EC50 (LCMV [2]; [11]): 0.1 ± 0.01 µM | EC50 (LCMV [2]; [12]): 0.15 ± 0.05 µM | EC50 (LCMV [2]; [13]): 0.04 ± 0.01 µM | EC50 (LCMV [2]; [14]): 0.04 to 0.15 µM | AUC0-t (in vivo [3]): 10700 ng·h/mL | Cmax (in vivo [3]): 1500 ng/mL | half-life (in vivo [3]): 6.82 ± 0.46 h | SI values SFTSV A549 (SFTSV [4]): > 210.67 | SI values SFTSV Huh-7 (SFTSV [4]): > 214.23 | SI values SFTSV Vero (SFTSV [4]): > 245.98 | EC50 (SFTSV [4]; [15]): 2.37 ± 0.16 µM | EC50 (SFTSV [4]; [16]): 2.33 ± 0.51 µM | EC50 (SFTSV [4]; [17]): 2.03 ± 0.82 µM | EC50 (SFTSV [4]; [18]): 2.03 to 2.37 µM

NC(=O)c1nc(F)c[nH]c1=O [T-705, favipiravir]
CC50 (in vitro): > 500 µM | SI values LCMV A549 (LCMV [2]): > 7.36 | SI values LCMV Vero (LCMV [2]): > 5.64 | EC50 (LCMV [2]; [11]): 68 µM | EC50 (LCMV [2]; [13]): 88.6 µM | leukopenia, lymphocytopenia and reduction in platelet count (hematological parameters) (SFTSV [5]): relieved | lung pathology scores (SFTSV [5]): significantly lower pathology scores | spleen histopathology scores (SFTSV [5]): substantially reduced | splenomegaly (spleen-to-body weight ratio) (SFTSV [5]): significantly ameliorated | virus load in the liver, spleen, lung, and kidney (qRT-PCR and immunoplaque assays) (SFTSV [5]): significant reductions | infectious viral titers in the spleen (immunoplaque assays) (SFTSV [5]; 300 mg/kg): marked decreases | plasma levels of IFN-γ, TNF-α, IL-1β and IL-6 (SFTSV [5]; 300 mg/kg): significantly reduced | viral RNA copies in the spleen (qRT-PCR) (SFTSV [5]; 300 mg/kg): no statistically significant reduction | body weight (SFTSV [5]; po, 300 mg/kg): slight initial weight loss followed by weight recovery at 5 days post-infection | survival (SFTSV [5]; po, 300 mg/kg): survived | SI values SFTSV A549 (SFTSV [4]): > 1.79 | SI values SFTSV Huh-7 (SFTSV [4]): > 160.32 | SI values SFTSV Vero (SFTSV [4]): > 24.23 | EC50 (SFTSV [4]; [15]): 280 µM | EC50 (SFTSV [4]; [16]): 3.12 µM | EC50 (SFTSV [4]; [17]): 20.6 µM | body weight (LCMV [6]): parallel body weight with that of the vehicle-treated group | spleen damage (spleen size, pathology score, H&E staining) (LCMV [6]): marked pathological lesions | viral RNA copies in the liver, spleen, lung, and kidney (qRT-PCR) (LCMV [6]): no reduction in the number of viral RNA copies was observed except in the lungs | viral titer in the liver, spleen, lung, and kidney (immunoplaque assay) (LCMV [6]): reduced the viral titer in the tissues | plasma IFN-γ and granulocyte colony-stimulating factor (LCMV [6]; 300 mg/kg): no significant effect | survival (LCMV [6]; po, 300 mg/kg): no survivors remaining by the end of the study

CC(=O)OC[C@@]1(F)O[C@@H](n2ccc(=O)n(COC(=O)c3cccnc3)c2=O)[C@H](OC(C)=O)[C@@H]1OC(C)=O [VV251]
CC50 (in vitro): > 500 µM | AUC0-t [7]: 14,922 ng·h/mL | Cmax [7]: 2,358 ng/mL | T1/2 [7]: 5.45 ± 0.82 h | SI values LCMV A549 (LCMV [2]): > 6559.96 | SI values LCMV BHK-21 (LCMV [2]): > 3177.56 | SI values LCMV Vero (LCMV [2]): > 3628.85 | fold lower EC50 than T-705 against LCMV (LCMV [2]): 849.6 fold and 632.9 fold | EC50 (LCMV [2]; [11]): 0.08 µM | EC50 (LCMV [2]; [12]): 0.16 ± 0.05 µM | EC50 (LCMV [2]; [13]): 0.14 µM | EC50 (LCMV [2]; [14]): 0.08 to 0.16 µM | AUC0-t [8]: 9,714 ng·h/mL | Cmax [8]: 1,598 ng/mL | T1/2 [8]: 6.34 ± 0.75 h | leukopenia, lymphocytopenia and reduction in platelet count (hematological parameters) (SFTSV [5]): relieved | lung pathology scores (SFTSV [5]): significantly lower pathology scores | plasma levels of IFN-γ, TNF-α, IL-1β and IL-6 (SFTSV [5]): significantly reduced | spleen histopathology scores (SFTSV [5]): substantially reduced | splenomegaly (spleen-to-body weight ratio) (SFTSV [5]): significantly ameliorated | virus load in the liver, spleen, lung, and kidney (qRT-PCR and immunoplaque assays) (SFTSV [5]): significant reductions | body weight (SFTSV [5]; po, 1 mg/kg): significant reduction in body weight | survival (SFTSV [5]; po, 1 mg/kg): only one mouse surviving until the end of the study | mice that died (SFTSV [5]; po, 5 mg/kg): one | body weight (SFTSV [5]; po, 10 mg/kg): remained stable | antiviral effect on addition of exogenous natural nucleosides (SFTSV [9]): competitively reversed by supplementation with exogenous uridine and cytidine | antiviral effect on addition of exogenous natural nucleosides (LCMV [10]): competitively reversed by supplementation with exogenous uridine and cytidine | SI values SFTSV A549 (SFTSV [4]): > 96.94 | SI values SFTSV Vero (SFTSV [4]): > 168.75 | EC50 (SFTSV [4]; [15]): 5.16 µM | EC50 (SFTSV [4]; [16]): 0.65 µM | EC50 (SFTSV [4]; [17]): 2.96 µM | EC50 (SFTSV [4]; [18]): 0.65 to 5.16 µM | body weight (LCMV [6]): remained stable | hematological parameters (white blood cell, platelet, lymphocyte count) (LCMV [6]): ameliorated viremia induced by LCMV infection | number of viral RNA copies relative to the vehicle group (LCMV [6]): more than one order of magnitude lower | plasma IFN-γ and granulocyte colony-stimulating factor (LCMV [6]): statistically significant reduction | spleen damage (spleen size, pathology score, H&E staining) (LCMV [6]): ameliorated spleen damage efficiently | viral RNA copies in the liver, spleen, lung, and kidney (qRT-PCR) (LCMV [6]): significantly decreased | viral titer in the liver, spleen, lung, and kidney (immunoplaque assay) (LCMV [6]): significantly decreased
